Assay results from patent US5861520A, “Glycolipid analogs” (Seikagaku Kogyo Kabushiki Kaisha (Seikagaku Corporation), priority 1994, dated 1999).
Entries after “also recorded” stand apart in the source; their conditions may differ.

Legend:
Assay type in all cases: biochemical
β-glucocerebrosidase [1] = target: T1, β-glucocerebrosidase (Mus musculus, UniProt P17439); assay: β-glucocerebrosidase inhibition with NBD-glucocerebroside (fluorescence-labeled natural substrate), mouse liver microsome; details: for inhibition of β-glucocerebrosidase activity (in words) / inhibition at 10 µM: 10 μM; for inhibition at 10 µM / IC50: NBD-glucocerebroside, mouse liver microsome; for enhancement of β-glucocerebrosidase inhibition compared with C-1 and C-3 (in words): compared with saturated analogs C-1 and C-3
T1 construct: mouse liver microsome as an enzyme source; from tissue; host or cells: mouse liver microsome
T1 sequence (P17439 20-515): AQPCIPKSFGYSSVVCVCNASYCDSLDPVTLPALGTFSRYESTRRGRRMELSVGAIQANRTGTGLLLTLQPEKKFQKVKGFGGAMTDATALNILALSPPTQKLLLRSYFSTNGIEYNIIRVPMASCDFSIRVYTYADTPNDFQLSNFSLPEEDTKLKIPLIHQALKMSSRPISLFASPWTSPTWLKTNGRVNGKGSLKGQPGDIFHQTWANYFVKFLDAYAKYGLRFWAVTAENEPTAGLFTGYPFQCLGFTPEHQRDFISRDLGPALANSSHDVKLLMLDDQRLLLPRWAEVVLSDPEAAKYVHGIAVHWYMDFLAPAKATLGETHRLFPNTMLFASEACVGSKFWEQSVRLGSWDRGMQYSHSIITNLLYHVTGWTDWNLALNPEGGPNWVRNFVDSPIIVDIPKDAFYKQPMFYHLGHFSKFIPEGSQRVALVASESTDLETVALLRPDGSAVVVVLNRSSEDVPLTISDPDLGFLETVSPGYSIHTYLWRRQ
Description: (§1) Glycosidase inhibitory effects of glycolipid analogs (1) The inhibitory effects of each of compounds 1E, 1Z, 2E and 2Z synthesized in Examples 1 to 4 on β-glucocerebrosidase and β-galactocerebrosidase were determined by using fluorescence-labeled natural substrates, i.e., 12-[N-methyl-N-(7-nitro-2-oxa-1,3-diaxol-4-yl)]aminododecanoic acid (NBD)-glucocerebroside and NBD-galactocrebroside. Namely, the β-glucocerebrosidease activity was determined in accordance with the method of Granbowski et al. [Clin. Chim. Acta., […], 123-135 (1982)] with the use of mouse liver microsome as an enzyme source. On the other hand, the β-galactocerebrosidase activity was determined in accordance with the method of Raghavan et al. [Biochim. Biophys. Acta, 877, 1-8 (1986)] with the use of mouse brain microsome as an enzyme source. […] Each substrate was used in a constant and large excess amount over the corresponding enzyme. […] IC50 levels (the concentration necessary for inhibiting 50% of the enzyme activity) of compounds 1E and 1Z were 0.3 μM and 0.1 μM, respectively. […] The inhibition (%) was determined in accordance with the following formula. [formula]
(§2) Under the same conditions as employed above, further, the inhibitory effects of the following compound C-1 [in the formula (a), X=NH, sugar analog=glucose type] being similar to the glycolipid analogs of the present invention and the sugar analogs C-2 to C-4 represented by the following formula [synthesized by the method similar to in the synthesis of compound C-1] were examined and compared.

β-galactocerebrosidase [2] = target: T2, β-galactocerebrosidase (Mus musculus, UniProt P54818); assay: β-galactocerebrosidase inhibition with NBD-galactocerebroside (fluorescence-labeled natural substrate), mouse brain microsome; details: for inhibition at 10 µM / IC50: NBD-galactocerebroside, mouse brain microsome; for inhibition at 10 µM / inhibition of β-galactocerebrosidase activity (in words): 10 μM
T2 construct: mouse brain microsome as an enzyme source; from tissue; host or cells: mouse brain microsome
T2 sequence (P54818 43-684): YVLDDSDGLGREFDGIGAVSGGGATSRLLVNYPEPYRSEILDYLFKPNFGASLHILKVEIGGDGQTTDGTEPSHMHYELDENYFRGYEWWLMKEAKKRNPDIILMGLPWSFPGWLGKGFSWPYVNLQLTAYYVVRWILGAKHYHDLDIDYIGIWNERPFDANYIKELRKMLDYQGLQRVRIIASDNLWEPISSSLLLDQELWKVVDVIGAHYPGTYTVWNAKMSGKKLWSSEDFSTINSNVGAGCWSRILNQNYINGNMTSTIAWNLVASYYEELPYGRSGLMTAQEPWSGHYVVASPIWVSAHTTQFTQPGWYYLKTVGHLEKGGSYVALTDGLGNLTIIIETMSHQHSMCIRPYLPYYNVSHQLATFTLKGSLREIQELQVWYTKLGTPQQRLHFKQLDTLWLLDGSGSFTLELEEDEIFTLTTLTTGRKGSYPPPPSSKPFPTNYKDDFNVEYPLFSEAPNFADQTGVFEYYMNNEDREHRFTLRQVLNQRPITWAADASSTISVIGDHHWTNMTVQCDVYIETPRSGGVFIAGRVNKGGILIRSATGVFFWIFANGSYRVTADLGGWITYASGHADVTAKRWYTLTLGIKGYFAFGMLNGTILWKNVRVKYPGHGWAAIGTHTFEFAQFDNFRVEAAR
Description: as §1, §2

β-glucocerebrosidase [3] = target: T1, β-glucocerebrosidase; assay: β-glucocerebrosidase inhibition with 4-methyl-umbelliferyl glucoside as substrate; details: mouse liver microsome
Description: (§3) (2) The inhibitory effects of each of compounds 1E, 1Z, 2E and 2Z synthesized in Examples 1 to 4, the above-described compound C-1 and the following compounds C-5 and C-6 on β-glucocerebrosidase and β-galactocerebrosidase were determined by the following method. Namely, the same enzyme sources as employed in the above (1) were used, while 4-methyl-umbelliferyl glucoside was used as a substrate. The inhibition (%) and IC50 were determined in accordance with the method of Peter et al. [Clin. Chim. Acta, 60, 391-396 (1975)]. In each case, the substrate was used in a constant and large excess amount over the corresponding enzyme.

β-galactocerebrosidase [4] = assay: β-galactocerebrosidase inhibition, 4-methyl-umbelliferyl substrate; details: mouse brain microsome, 4-methyl-umbelliferyl glucoside
Description: as §3

Row | SMILES | inhibition of β-glucocerebrosidase activity (in words) (β-glucocerebrosidase [1]) | inhibition at 10 µM (β-glucocerebrosidase [1]) [%] | IC50 (β-glucocerebrosidase [1]) [nM] | enhancement of β-glucocerebrosidase inhibition compared with C-1 and C-3 (in words) (β-glucocerebrosidase [1]) | inhibition at 10 µM (β-galactocerebrosidase [2]) [%] | inhibition at 40 µM (β-glucocerebrosidase [3]) [%] | IC50 (β-glucocerebrosidase [3]) [nM] | 40 μM inhibition (%) (β-galactocerebrosidase [4]) | inhibition of β-galactocerebrosidase activity (in words) (β-galactocerebrosidase [2]) | IC50 (β-galactocerebrosidase [2]) [nM] | IC50 (β-galactocerebrosidase [4]) [nM]
1 | CCCCCCCCCCCCC/C=C/[C@@H](O)[C@H](CN[C@@H]1C=C(CO)[C@@H](O)[C@H](O)[C@H]1O)NC(=O)CCCCCCCCCCCCCCC [Compound 1E, (2S,3R,4E)-1-[(5a-carba-β-D-xylo-hex-5-enopyranosyl)amino]-2-(hexadecanoylamino)-4-octadecen-3-ol] | strongly and specifically inhibited the β-glucocerebrosidase activity alone; also recorded: almost completely inhibited the β-glucocerebrosidase activity | 95.2 | 300 | extremely enhanced | 0 | 97 | 580 | 1 | – | – | –
2 | CCCCCCCCCCCCC/C=C\[C@@H](O)[C@H](CN[C@@H]1C=C(CO)[C@@H](O)[C@H](O)[C@H]1O)NC(=O)CCCCCCCCCCCCCCC [Compound 1Z, (2S,3R,4Z)-1-[(5a-carba-β-D-xylo-hex-5-enopyranosyl)amino]-2-(hexadecanoylamino)-4-octadecen-3-ol] | strongly and specifically inhibited the β-glucocerebrosidase activity alone; also recorded: almost completely inhibited the β-glucocerebrosidase activity | 97.7 | 100 | extremely enhanced | 0 | 99 | 440 | 1 | – | – | –
3 | CCCCCCCCCCCCC/C=C/[C@@H](O)[C@H](CN[C@@H]1C=C(CO)[C@H](O)[C@H](O)[C@H]1O)NC(=O)CCCCCCCCCCCCCCC [Compound 2E, (2S,3R,4E)-1-[(5a-carba-α-L-arabino-hex-5-enopyranosyl)amino]-2-(hexadecanoylamino)-4-octadecen-3-ol] | – | 0 | – | – | 92.6 | 31 | – | 95 | strongly and specifically inhibited the β-galactocerebrosidase activity alone | 1600 | 1250
4 | CCCCCCCCCCCCC/C=C\[C@@H](O)[C@H](CN[C@@H]1C=C(CO)[C@H](O)[C@H](O)[C@H]1O)NC(=O)CCCCCCCCCCCCCCC [Compound 2Z, (2S,3R,4Z)-1-[(5a-carba-α-L-arabino-hex-5-enopyranosyl)amino]-2-(hexadecanoylamino)-4-octadecen-3-ol] | – | 0 | – | – | 87.2 | 43 | – | 92 | strongly and specifically inhibited the β-galactocerebrosidase activity alone | 2300 | 1850
5 | CCCCCCCCCCCCC/C=C/[C@@H](O)[C@H](CN[C@@H]1C[C@H](CO)[C@@H](O)[C@H](O)[C@H]1O)NC(=O)CCCCCCCCCCCCCCC [Compound C-1, reference compound] | – | 37.3 | – | – | 0 | 56 | – | 7 | – | – | –
6 | CCCCCCCCCCCCC/C=C/[C@@H](O)[C@H](CN[C@@H]1C[C@H](CO)[C@H](O)[C@H](O)[C@H]1O)NC(=O)CCCCCCCCCCCCCCC [Compound C-2, reference compound] | – | 0 | – | – | 12.9 | – | – | – | slightly inhibited the β-galactocerebrosidase activity | – | –
7 | CCCCCCCCCCCCC/C=C\[C@@H](O)[C@H](CN[C@@H]1C[C@H](CO)[C@@H](O)[C@H](O)[C@H]1O)NC(=O)CCCCCCCCCCCCCCC [Compound C-3, reference compound] | – | 64 | – | – | 2.3 | – | – | – | – | – | –
8 | CCCCCCCCCCCCC/C=C\[C@@H](O)[C@H](CN[C@@H]1C[C@H](CO)[C@H](O)[C@H](O)[C@H]1O)NC(=O)CCCCCCCCCCCCCCC [Compound C-4, reference compound] | – | 0 | – | – | 15.4 | – | – | – | slightly inhibited the β-galactocerebrosidase activity | – | –
9 | CCCCCCCCCCCCC/C=C/[C@@H](O)[C@H](CO[C@@H]1C[C@H](CO)[C@@H](O)[C@H](O)[C@H]1O)NC(=O)CCCCCCCCCCCCCCC [Compound C-5, reference compound] | – | – | – | – | – | 0 | – | 31 | – | – | –
10 | CCCCCCCCCCCCC/C=C/[C@@H](O)[C@H](CS[C@@H]1C[C@H](CO)[C@@H](O)[C@H](O)[C@H]1O)NC(=O)CCCCCCCCCCCCCCC [Compound C-6, reference compound] | – | – | – | – | – | 0 | – | 0 | – | – | –
